Results published in patent US20040132969A1, “Antibodies, peptides, analogs and uses thereof” (priority 2000, published 2004).
“Also recorded” adds a separate entry of the source.

Experiments:
[1] = tested on: FDP induced cell proliferation in the chick CAM; experiment: CAM cell proliferation assay in the presence of FDP; assay type: in vivo
Experimental: Cell proliferation was measured using the chick chorioallantoic membrane (CAM) model as described previously (4, 29, 30).
Briefly, on day zero, fertile hens' eggs, are placed in an egg incubator 37.5° C. with pointed ends facing downwards. On day 3, using a 2 ml syringe with a 21G needle, 2 ml of albumen is removed and the eggs returned to the incubator. On day 4, each egg is punctured by a needle at the blunt end into the air space. A square of shell is then removed, causing the egg contents to drop into the space left by collapse of the air space at the end of the egg and the withdrawal of albumen. The volume of the space above the dropped CAM is approximately 7 ml. The square opening in the shell is covered with Sellotape (RTM). The eggs then have to be kept level in the incubator without tilting. On day 10, the surviving eggs are organised into groups of preferably no less than 10. Test and control samples are prepared and each egg receives 0.3 ml of sample injected through the Sellotape (RTM) onto the upper surface of the CAM.
The technique of removal of each CAM is simple but crucial to the rationale of achieving results expressed as total DPM per CAM. By 20 min, methyl-[^3H]thymidine is incorporated only into the CAM which has been directly exposed. Beyond 30 min, [^3H]thymidine becomes detectable in adjacent CAM that is applied to the shell, via uptake from the bloodstream. Each CAM is removed by holding the egg in the palm of one hand, Sellotape window face down, and piercing the side with pointed scissors well above the level of the dropped CAM. Scissors are used to cut round the shell, and the residual yolk and embryo tipped out into a disposal container once the umbilical vessels connecting the embryo to the CAM are cut. […]
The assay used is based on quantitative measurement of DNA synthesis in the CAM after exposure to control and test substances 18 h after application in liquid form to the whole “dropped” area of each CAM (4,29). […]

HUVEC and fibroblasts = experiment: BrdU ELISA cell proliferation cytotoxicity assay; assay type: cell-based, human; settings: HUVEC and fibroblast monocultures; 24 hours
Experimental: In order to determine whether the fibrin E analogue peptides WTM33, WTM34, WTM35, WTM36, and WTM37 are cytotoxic when applied to the HUVEC and fibroblasts used in the Angiosys™ angiogenesis assay, these reagents were examined in two different cytotoxicity assays. To simplify performance of these assays and discriminate between fibroblasts and HUVEC, cells were grown in monocultures rather than together and then treated with the experimental reagents as described below.
Cytotoxicity of the fibrin E peptide analogues was also determined by examining cell proliferation, using a commercial BrdU ELISA (Roche Molecular Biochemicals) performed according to the manufacturer's instructions. This assay quantifies DNA synthesis as a measure of cellular proliferation, as stimulation or inhibition of cell replication will require a concomitant change in the rate of DNA synthesis. Measurement of DNA synthesis is achieved by incubating proliferating cells in medium in which thymidine has been replaced with the pyrimidine analogue 5-bromo-2′-deoxyuridine (BrdU). Once incorporated into the cellular DNA, BrdU is measured by immunoassay. Briefly, HUVEC and fibroblasts were seeded as monocultures into 96 well plates at a density of 5×10^3 cells per well, to a final volume of 100 μl per well in endothelial cell culture medium. At the end of an initial culture period of 72 hours under standard conditions, while the cells were still proliferating, fibrin E analogue peptides were added to a range of final concentrations, as shown in the FIG. 8. Each treatment concentration of each peptide was administered to four replicate wells. Control cells received standard medium without test compounds. The cells were incubated for 24 hours with the test compounds, before 10 μl of stock BrdU solution (100 μM) was added to give a final concentration of 10 μM BrdU, and the cells were incubated for a further 2 hours. The test medium was then removed from the cells and replaced with 200 μl per well of Fixing/Denaturing solution, which was incubated on the cells for a further 30 minutes at room temperature. This was then replaced with 100 μl per well anti-BrdU-POD (mouse monoclonal clone BMG 6H8, Fab fragments conjugated to peroxidase) prepared as directed, which was left on the cells for a further 90 minutes at room temperature. The antibody conjugate was then removed from the wells by rinsing three times in 200 μl per well of washing buffer (PBS) before 100 μl well substrate solution (tetramethyl-benzidine) was added and incubated at room temperature until colour development was sufficient for photometric detection (approximately 15 minutes). Absorbance at 370 nm was measured on a multi-well plate ELISA plate reader (Dynatech), with a reference wavelength of 492 nm. Mean absorbance values from each group of four wells were calculated and expressed as a percentage±standard deviation of the mean value obtained from control wells incubated in the absence of fibrin E analogue peptide.

## LHADPDLGVLCPTGC [WTM34]
[1]; low / lower concentrations of peptide, 5 μM FDPs
  effect on FDP-induced stimulation of cell proliferation: significant inhibition of the FDP induced stimulation
[1]; peptide at 4.633 μM and 9.265 μM, 5 μM FDPs
  effect on FDP-induced stimulation of cell proliferation: does not appear to affect the FDP-induced stimulation of cell proliferation
[1]; peptide in the presence of FDPs (5 μM) / fibrin
  effect on FDP-induced stimulation of cell proliferation: some inhibitory effect
HUVEC and fibroblasts
  cytotoxicity / cell proliferation, BrdU assay: not cytotoxic; also recorded: no toxicity
